Experiment: molar heat capacity at constant pressure
Settings: Liquid, Flow calorimetry

CCCCCCCCCCCC(=O)OCC [ethyl dodecanoate]
Settings	molar heat capacity at constant pressure [J/K/mol]
313.26 K, 5030 kPa	472
313.26 K, 9990 kPa	471
313.27 K, 140 kPa	474
313.27 K, 14970 kPa	470
313.28 K, 25150 kPa	469
313.29 K, 20040 kPa	470
323.22 K, 160 kPa	480
323.22 K, 20140 kPa	475
323.22 K, 25150 kPa	474
323.23 K, 4980 kPa	478
323.23 K, 10110 kPa	477
323.23 K, 14920 kPa	476
333.2 K, 140 kPa	487
333.2 K, 4920 kPa	485
333.2 K, 10150 kPa	483
333.2 K, 15060 kPa	482
333.2 K, 19970 kPa	481
333.21 K, 25020 kPa	480
343.15 K, 140 kPa	493
343.16 K, 5160 kPa	491
343.16 K, 10270 kPa	489
343.19 K, 15130 kPa	488
343.19 K, 20220 kPa	487
343.21 K, 25180 kPa	486
353.14 K, 180 kPa	501
353.14 K, 4970 kPa	498
353.17 K, 9950 kPa	496
353.17 K, 14920 kPa	494
353.17 K, 20020 kPa	492
353.18 K, 24950 kPa	491
363.17 K, 110 kPa	508
363.18 K, 5010 kPa	507
363.29 K, 10190 kPa	505
363.29 K, 15070 kPa	503
363.29 K, 20150 kPa	501
363.29 K, 25100 kPa	500
373.19 K, 110 kPa	516
373.2 K, 4900 kPa	514
373.21 K, 10170 kPa	512
373.21 K, 15020 kPa	511
373.22 K, 19850 kPa	509
373.25 K, 24930 kPa	508
383.23 K, 100 kPa	523
383.23 K, 5000 kPa	521
383.23 K, 10040 kPa	520
383.24 K, 15080 kPa	518
383.25 K, 19940 kPa	517
383.28 K, 25150 kPa	515
393.2 K, 4910 kPa	530
393.22 K, 110 kPa	532
393.22 K, 10100 kPa	530
393.23 K, 19780 kPa	528
393.27 K, 15020 kPa	529
393.27 K, 24830 kPa	527

CCCCCCCCC(=O)OCC [ethyl nonanoate]
Settings	molar heat capacity at constant pressure [J/K/mol]
303.21 K, 15150 kPa	369
303.22 K, 9980 kPa	370
303.24 K, 20090 kPa	369
303.25 K, 5000 kPa	371
303.27 K, 24930 kPa	368
303.31 K, 110 kPa	371
313.21 K, 19900 kPa	375
313.22 K, 14910 kPa	376
313.23 K, 170 kPa	377
313.24 K, 9850 kPa	376
313.24 K, 24930 kPa	374
313.26 K, 5090 kPa	377
323.19 K, 4970 kPa	385
323.22 K, 110 kPa	386
323.22 K, 24920 kPa	382
323.23 K, 10020 kPa	384
323.24 K, 20090 kPa	382
323.26 K, 15190 kPa	383
333.16 K, 4930 kPa	393
333.18 K, 140 kPa	394
333.18 K, 9950 kPa	393
333.19 K, 20150 kPa	392
333.21 K, 15110 kPa	393
333.23 K, 25020 kPa	392
343.19 K, 5070 kPa	400
343.19 K, 9940 kPa	400
343.19 K, 14950 kPa	400
343.2 K, 110 kPa	401
343.21 K, 19870 kPa	399
343.22 K, 25210 kPa	399
353.11 K, 4910 kPa	407
353.14 K, 160 kPa	407
353.14 K, 10160 kPa	406
353.15 K, 14930 kPa	406
353.2 K, 20210 kPa	405
353.23 K, 25190 kPa	405
363.12 K, 110 kPa	414
363.14 K, 5090 kPa	413
363.16 K, 15060 kPa	412
363.17 K, 10020 kPa	413
363.17 K, 20130 kPa	411
363.19 K, 25160 kPa	410
373.12 K, 100 kPa	420
373.12 K, 4830 kPa	420
373.13 K, 10020 kPa	419
373.13 K, 15150 kPa	418
373.14 K, 20170 kPa	418
373.14 K, 24950 kPa	417
383.18 K, 160 kPa	427
383.2 K, 4950 kPa	426
383.2 K, 10190 kPa	425
383.2 K, 15000 kPa	425
383.22 K, 20130 kPa	424
383.22 K, 24950 kPa	424
393.18 K, 110 kPa	434
393.18 K, 5090 kPa	433
393.18 K, 10020 kPa	433
393.19 K, 15150 kPa	433
393.2 K, 20190 kPa	432
393.24 K, 24960 kPa	432
